Results published in patent publication US20070203141A1 (BOEHRINGER INGELHEIM PHARMACEUTICALS, INC., priority 2001, published 2007).
“And” between values parts separate entries of the source, which are not always exact repeats. Identical values can stand only once.

Tests used:
[1] = tested on: TNFα release from LPS stimulated human PBMC; assay: TNFα release from LPS stimulated human PBMC; assay type: cell-based
[2] = tested on: TNFα release, human whole blood; assay: TNFα release from LPS stimulated human whole blood; assay type: cell-based
[3] = tested on: TNFα release, monkey whole blood; assay: TNFα release from LPS stimulated monkey whole blood; assay type: cell-based
Excerpt: (§1) As a surrogate model for man, we developed an endotoxin model in the cynomolgus monkey to examine the effect of p38 MAPK inhibitors on modulating TNFα production.

[4] = tested on: TNFα production; assay: Mouse model of LPS-induced TNFα production; assay type: in vivo; conditions: dosed orally 30 minutes prior to LPS challenge
[5] = tested on: plasma TNFα production; assay: Cynomolgus monkey endotoxin model, IV dosing just prior to LPS challenge; assay type: in vivo; conditions: vs vehicle
Excerpt: as §1

[6] = tested on: TNFα production; assay: Cynomolgus monkey endotoxin model, duration of action, PO chewable tablets 12 hours prior to LPS; assay type: in vivo; conditions: for Inhibition of TNFα production: vs placebo; for Peak plasma level: cynomolgus monkey
Excerpt: as §1

[7] = tested on: TNFα production; assay: Human endotoxemia trial, LPS-induced TNFα production; assay type: in vivo; conditions: for Inhibition of LPS-induced TNFα production: human, vs placebo
Excerpt: Intravenous administration of endotoxin represents a safe, well-defined model of acute inflammation in humans. It is also an excellent tool to study the mechanisms contributing to inflammatory responses in man in vivo.
The endotoxin (LPS) was obtained from: Escherichia coli LPS (lot G; United States Pharmacopoeial Convention, Rockville, Md. USA).
Percent inhibition was obtained by calculating the percent difference between the median peak plasma pharmacodynamic endpoint concentrations of the placebo group and the maximum endpoint concentration achieved by each individual. […] [formula]

[8] = tested on: TNFα; assay: Single dose rising trial (U00-1627), ex vivo TNFα inhibition; assay type: in vivo, human; conditions: single dose rising trial U00-1627
Description: (§2) Thus, 4 mg would be efficacious in inhibiting TNFα production.
This discrepancy between in vivo and ex vivo and in vivo and in vitro was also observed in cynomolgus monkeys (U99-3145).

[9] = Phase 1 single dose trial, pharmacokinetics; assay type: in vivo; conditions: human, 4 mg single dose
Description: as §2

[10] = Once daily for 7 days multiple dose study, pharmacokinetics; assay type: in vivo; conditions: human
Description: (§3) This was a randomized, double-blind, placebo-controlled (2:6 ratio per dose group), multiple dose (20, 50 and 150 mg) study to assess pharmacokinetics, pharmacodynamics, safety and tolerability using a tablet formulation administered once a day for one week. Safety was determined by adverse events, laboratory tests, and physical examination. Kinetics were assessed by measuring plasma levels of drug and pharmacodynamics was assessed ex vivo by the effects of LPS induced production of TNFα, and the TNFα or fMLP induced activation state of PMN in human whole blood as measured by the ratio of Mac-1/Lselectin cell surface expression. Twenty-four healthy male volunteers (mean age 30 years, mean weight 76 kg) were studied. […] Two subjects receiving the 150 mg dose developed acne. There were no clinically significant changes in laboratory assessments except for a dose related, reversible rise in AST and ALT. […] This transaminase increase was not associated with changes in other liver function tests, nor was it associated with any liver related signs or symptoms. […] Steady-state was attained within 2 days.

[11] = Once daily for 7 days multiple dose study, safety and tolerability; assay type: in vivo, human
Description: Transaminase levels peaked 2 to 4 days after the end of drug therapy on day 7 with resolution over the next 7 to 14 days.
as §3

[12] = tested on: TNFα; assay: Once daily for 7 days study, ex vivo LPS induced production of TNFα in human whole blood; conditions: any of the doses used (20, 50, 150 mg once daily for 7 days)
Description: as §3

[13] = tested on: PMN (neutrophil) activation in human whole blood; assay: Once daily for 7 days study, ex vivo TNFα or fMLP induced activation state of PMN (Mac-1/Lselectin ratio); assay type: in vivo
Description: as §3

[14] = Twice daily for 14 days Phase I study, pharmacokinetics; assay type: in vivo; conditions: human
Description: (§4) This study was a Phase I, randomized, double-blind, placebo-controlled, multiple-dose trial to investigate the safety and pharmacokinetics of 15 or 30 mg of an orally available p38MAPK inhibitor administered twice daily compared to placebo for 14 days. Subjects were 49 healthy males, 16 per treatment group (one subject on placebo was discontinued). […] Based on preliminary analysis of this study, 9 of 48 subjects had transaminase values above the upper limit of normal (UNL), 2 in the placebo, 3 in the 15 mg dose group and 4 in 30 mg dose group. Three subjects experienced ALT rises 2-3 fold greater than UNL, one in each dose group. […] There were no relevant changes in other laboratory studies, EKGs or physical examinations.

[15] = Twice daily for 14 days Phase I study, safety; assay type: in vivo, human; conditions: for Subjects with transaminase values above the upper limit of normal: preliminary analysis, placebo 2
Description: as §4

[16] = 150 mg once daily for 7 days, all 6 subjects

## Cc1ccc(-n2nc(C(C)(C)C)cc2NC(=O)Nc2ccc(OCCN3CCOCC3)c3ccccc23)cc1 [BIRB 796 BS]
[1]
  IC50: 21 nM
[2]
  IC50: 800 nM
[3]
  IC50: 4000 nM
[4]
  ED50, inhibition of LPS-induced TNFα: approximately 10 mg/kg
[5]; 0.3 mg/kg IV just prior to LPS 400 ng/kg IV
  Inhibition of plasma TNFα production: not significantly inhibited
[5]; 1 mg/kg IV just prior to LPS 400 ng/kg IV, p<0.005
  Inhibition of plasma TNFα production: 85%
[5]; 3 mg/kg IV just prior to LPS 400 ng/kg IV, p<0.005
  Inhibition of plasma TNFα production: 90%
[6]; 1 mg/kg PO 12 hours prior to IV LPS, NS
  Inhibition of TNFα production: 44%
[6]; 3 mg/kg PO 12 hours prior to IV LPS, p<0.05
  Inhibition of TNFα production: 61%
[6]; 20 mg/kg PO 12 hours prior to IV LPS, p<0.01
  Inhibition of TNFα production: 84%
[6]; 1 mg/kg PO chewable tablets
  Peak plasma level: 0.003 µM
[6]; 3 mg/kg PO chewable tablets
  Peak plasma level: 0.02 µM
[6]; 20 mg/kg PO chewable tablets
  Peak plasma level: 1.4 µM
[7]; Emax model, plasma concentration ten minutes prior to LPS challenge
  EC50 for inhibiting TNFα production in vivo: 0.02372 µg/mL
[7]; Emax model, pre-LPS challenge plasma concentration vs percent inhibition of peak TNFα
  Emax (% Inhibition), TNFα: 95% and 95.34%
[7]; 50 mg orally 3 hours prior to LPS challenge
  Inhibition of LPS-induced TNFα production: 88%
[7]; 600 mg orally 3 hours prior to LPS challenge
  Inhibition of LPS-induced TNFα production: 97%
[8]; 50 mg
  Ex vivo inhibition of TNFα production: no inhibition was observed
[8]
  EC50 calculated from ex-vivo inhibition of TNFα: 1.228 µg/mL
[9]
  Cmax: 23.8 ± 5.71 ng/mL
[10]; 20 mg once daily
  Day 7 mean AUC0-24: 364 ng·h/mL
  Day 7 mean Cmax: 116 ng/mL
[10]; 50 mg once daily
  Day 7 mean AUC0-24: 1324 ng·h/mL
  Day 7 mean Cmax: 308 ng/mL
[10]; 150 mg once daily
  Day 7 mean AUC0-24: 5924 ng·h/mL
  Day 7 mean Cmax: 1108 ng/mL
[10]; once daily dosing
  Time to steady-state: ≤ 2 days
[11]; 150 mg daily for seven days
  Change in γ-GT: small increase in γ-GT
  Elevations in AST and ALT: moderate elevations in AST and ALT
[11]; 150 mg for seven days
  Tolerability: not considered well tolerated
[11]; [16]
  Rise in ALT above the upper limit of normal: ≤ 3.5 fold
  Rise in AST above the upper limit of normal: ≤ 2 fold
[11]; doses up to 50 mg (20 and 50 mg) daily for 7 days
  Tolerability: well tolerated
[12]
  Ex vivo inhibition of TNFα: No inhibition
[13]; 4 hours post dosing
  Ex vivo neutrophil activation: dose dependent inhibition
[13]; 24 hours post dosing, various dose levels
  Ex vivo neutrophil activation: mixed pattern of neutrophil inhibition and activation
[14]; 15 mg twice daily
  AUC0-12 (mean±SD) on day 14: 334 ± 145 ng·h/mL
  Cmax (mean±SD) on day 14: 109 ± 51 ng/mL
[14]; 30 mg twice daily
  AUC0-12 (mean±SD) on day 14: 659 ± 449 ng·h/mL
  Cmax (mean±SD) on day 14: 208 ± 109 ng/mL
[14]; 15 or 30 mg twice daily for 14 days
  Mean elimination half-life: 7.3 h
[15]; 15 mg twice daily group (16 per group)
  Subjects with transaminase values above the upper limit of normal: 3 subjects
[15]; 30 mg twice daily group (16 per group)
  Subjects with transaminase values above the upper limit of normal: 4 subjects
[15]; doses up to 30 mg twice daily for two weeks
  Tolerability: well tolerated
